Measured values taken from ChEMBL document CHEMBL1137586, “Aminomethyl tetrahydronaphthalene ketopiperazine MCH-R1 antagonists--Increasing selectivity over hERG” (Bioorg Med Chem Lett, 2007).

What was measured:
[1] = biological target: T1, Melanin-concentrating hormone receptor 1 (Homo sapiens, UniProt Q99705); experiment: Functional antagonism of MCH-R1 expressed in HEK293 cells; format: cell-based
[2] = biological target: T1, Melanin-concentrating hormone receptor 1; experiment: Inhibition of binding to MCH-R1
[3] = Serum concentration in DIO mice 2 hr post 20mg/kg peroral dose; format: ADME, organism-based; details: mouse, po, read-out: Serum conc
[4] = test system: Mus musculus; experiment: Percent weight loss in DIO mice 4 days after 20 mg/kg peroral dose; format: functional; details: route oral
[5] = biological target: T2, Voltage-gated inwardly rectifying potassium channel KCNH2 (Homo sapiens, UniProt Q12809); experiment: Inhibition of binding to hERG
T2 sequence (Q12809 whole entry): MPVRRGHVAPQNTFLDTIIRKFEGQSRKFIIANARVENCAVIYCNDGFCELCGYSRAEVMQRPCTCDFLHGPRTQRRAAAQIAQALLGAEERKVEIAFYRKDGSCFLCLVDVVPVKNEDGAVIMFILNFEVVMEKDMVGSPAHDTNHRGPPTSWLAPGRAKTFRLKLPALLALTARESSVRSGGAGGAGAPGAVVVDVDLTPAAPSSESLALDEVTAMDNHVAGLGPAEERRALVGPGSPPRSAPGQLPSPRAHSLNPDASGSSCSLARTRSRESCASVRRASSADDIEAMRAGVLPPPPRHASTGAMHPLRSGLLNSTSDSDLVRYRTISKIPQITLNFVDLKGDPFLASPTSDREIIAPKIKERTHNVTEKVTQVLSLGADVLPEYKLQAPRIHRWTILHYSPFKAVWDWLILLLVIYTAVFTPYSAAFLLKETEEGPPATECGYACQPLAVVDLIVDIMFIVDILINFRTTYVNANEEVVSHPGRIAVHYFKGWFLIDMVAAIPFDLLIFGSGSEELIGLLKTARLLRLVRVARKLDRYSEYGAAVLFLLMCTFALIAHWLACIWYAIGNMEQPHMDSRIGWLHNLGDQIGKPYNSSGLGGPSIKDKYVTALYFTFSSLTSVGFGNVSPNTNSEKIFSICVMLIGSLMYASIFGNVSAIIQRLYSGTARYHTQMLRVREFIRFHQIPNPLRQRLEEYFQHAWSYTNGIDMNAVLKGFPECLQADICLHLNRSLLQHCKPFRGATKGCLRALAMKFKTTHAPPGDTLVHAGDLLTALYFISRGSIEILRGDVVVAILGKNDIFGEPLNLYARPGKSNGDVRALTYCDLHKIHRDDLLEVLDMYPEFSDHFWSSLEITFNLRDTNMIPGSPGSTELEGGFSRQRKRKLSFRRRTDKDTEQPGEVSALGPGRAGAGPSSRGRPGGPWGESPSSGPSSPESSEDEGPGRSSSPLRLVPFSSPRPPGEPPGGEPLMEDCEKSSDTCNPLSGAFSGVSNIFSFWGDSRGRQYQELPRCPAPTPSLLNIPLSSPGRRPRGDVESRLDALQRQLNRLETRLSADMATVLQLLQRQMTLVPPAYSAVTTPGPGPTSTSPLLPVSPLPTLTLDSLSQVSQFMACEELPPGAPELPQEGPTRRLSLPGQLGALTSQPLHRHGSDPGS

[6] = biological target: hERG (KCNH2) (Homo sapiens, UniProt Q12809); experiment: Percent inhibition of binding to hERG at10uM
Chain of hERG (KCNH2) (Q12809 whole entry): as above

[7] = Relative concentration in DIO mouse brain over serum 2 hr post 20mg/kg peroral dose; format: ADME, organism-based; details: po
[8] = biological target: T2, Voltage-gated inwardly rectifying potassium channel KCNH2; experiment: Prolonged QTc interval in anaesthetized dogs after 15min infusion at 30 mg/kg compared to vehicle; details: dog, in vivo, iv, 0.25 h

T1 sequence (Q99705 whole entry): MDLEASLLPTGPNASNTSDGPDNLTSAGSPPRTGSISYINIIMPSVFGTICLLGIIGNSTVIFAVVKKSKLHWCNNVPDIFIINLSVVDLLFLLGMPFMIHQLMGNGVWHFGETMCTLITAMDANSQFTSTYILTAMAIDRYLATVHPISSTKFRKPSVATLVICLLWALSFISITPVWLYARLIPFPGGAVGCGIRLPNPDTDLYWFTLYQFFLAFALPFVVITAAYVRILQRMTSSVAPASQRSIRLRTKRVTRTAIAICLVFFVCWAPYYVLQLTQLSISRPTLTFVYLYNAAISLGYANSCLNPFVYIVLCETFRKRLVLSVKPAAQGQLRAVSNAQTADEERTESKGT

Work on `CCN(CC)Cc1ccc2c(c1)CC[C@H](N1CCN(CCc3cccc(C(F)(F)F)c3)CC1=O)C2` yielded a Ki [1] of 0.093 µM.

`CCN(CC)Cc1ccc2c(c1)CC[C@H](N1CCN(CCc3ccc(F)cc3)CC1=O)C2` gave a Ki [2] of 0.015 µM, a concentration at 2 h [3] of 2 µM and a Weight loss [4] of 4%.

Work on `O=C1CN(CCc2ccc(F)cc2)CCN1[C@H]1CCc2cc(Cn3ccnc3)ccc2C1` yielded an IC50 [5] of 4 µM and a Ki [1] of 52 µM.

For `CCN(CC)Cc1ccc2c(c1)CC[C@H](N1CCN(CCC3CCCS3)CC1=O)C2` (stereo partly drawn), the Ki [1] was 0.047 µM.

`O=C1CN(CCc2ccc(F)cc2)CCN1[C@H]1CCc2cc(CNCC(F)(F)F)ccc2C1` gave an inhibition at 10 µM [6] greater than 50%.

Compound `O=C1CN(CCc2ccc(F)cc2)CCN1[C@H]1CCc2cc(CN3CCC(C(F)(F)F)CC3)ccc2C1` has an IC50 [5] of 2 µM and a Ki [1] of 8.7 µM.

With `O=C1CN(CCc2ccc(F)cc2)CCN1[C@H]1CCc2cc(CN3CCS(=O)(=O)CC3)ccc2C1` the IC50 [5] was 24 µM, the concentration at 2 h [3] was 16 µM and the Weight loss [4] was less than 2%.

In the case of `O=C1CN(CCc2ccc(F)cc2)CCN1[C@H]1CCc2cc(CN3CCOCC3)ccc2C1`, the IC50 [5] is reported as 11 µM and the Ki [1] is reported as 15 µM.

For `CCN(CC)Cc1ccc2c(c1)CC[C@H](N1CCN(CCC3CCCCC3)CC1=O)C2`, the Ki [1] was 0.032 µM.

`CS(=O)(=O)N1CCN(Cc2ccc3c(c2)CC[C@H](N2CCN(CCc4ccc(F)cc4)CC2=O)C3)CC1` showed an IC50 [5] of 13 µM, a concentration at 2 h [3] of 9 µM and a Weight loss [4] of 3%. The Ki [1] was 30 µM.

For `CCN(CC)Cc1ccc2c(c1)CC[C@H](N1CCN(CCc3ccc(Cl)cc3)CC1=O)C2`, the Ki [1] was 0.0033 µM.

Work on `CN(C)C(=O)C(CO)N(C)Cc1ccc2c(c1)CC[C@H](N1CCN(CCc3ccc(F)cc3)CC1=O)C2` (stereo partly drawn) yielded an IC50 [5] of 25 µM.

For `CC(=O)N1CCN(Cc2ccc3c(c2)CC[C@H](N2CCN(CCc4ccc(F)cc4)CC2=O)C3)CC1`, the IC50 [5] was 25 µM, the concentration at 2 h [3] was 4 µM and the Weight loss [4] was less than 2%. The Ki [1] was 16 µM, the Kp at 2 h [7] was 0.3 and the QT interval [8] was “Active p<0.05”.
